Data on six molecules can be found in PMC12249663, “Identification and Screening of Novel Antioxidant Peptides from Yak Skin and Their Protective Effect on H2O2-Induced HepG2 Cells Oxidation” (International Journal of Molecular Sciences, 2025).

Data set [1] deals with HepG2 cells. As to conditions: 2 h, CCK-8, mean ± SD. The protocol:
HepG2 cells were cultured in 96-well plates at a density of 5 × 10^4 cells/mL for 24 h. After the medium was removed, 100 µL of complete medium containing different concentrations of H2O2 (800, 1000, 1200, 1400, 1600 µM) was added and incubated for 2 h. After the medium was discarded, cell viability was determined using the CCK-8 assay to establish the optimal H2O2 concentration for inducing an oxidative stress model. The cells without H2O2 treatment were used as control group.

Data set [2] concerns H2O2-induced HepG2 cells. Put plainly: SOD activity in H2O2-induced HepG2 cells (kit). The data set is classed as cell-based. As to conditions: for activity of SOD compared with the model group: peptide pretreatment, H2O2-induced HepG2 cells, p < 0.05. The protocol:
(§1) After the medium was discarded, 100 μL peptides of different concentrations were added to the wells and cultured for an additional 24 h. After discarding the medium and then being washed, the cells were incubated with 100 μL of an appropriate concentration of H2O2. After incubation for 2 h, the supernatant was collected, and the content of IL-8 was determined strictly, according to the kit instructions. Afterwards, the cells were washed twice with PBS, and then the cell viability was measured. Alternatively, the cells were disrupted with 300 μL of cell lysate and centrifuged at 6000× g at 4 °C for 15 min. The supernatant was collected and stored at −80 °C. The protein concentration was determined using the Bio-Rad DC analysis with BSA as the standard curve. In addition, the contents of SOD, CAT, and MDA in cell lysates were determined in strict accordance with the kit instructions.

In data set [3] the test system is H2O2-induced HepG2 cells. Put plainly: CAT activity in H2O2-induced HepG2 cells (kit). The data set is classed as cell-based. As to conditions: for activity of CAT compared with the model group: peptide pretreatment, H2O2-induced HepG2 cells, p < 0.05. The protocol:
as §1

Data set [4] concerns H2O2-induced HepG2 cells. Put plainly: MDA content in H2O2-induced HepG2 cells (kit). The format is cell-based. The note with it: peptide pretreatment 24 h, then 1.4 mM H2O2 2 h; cell lysate; mean ± SD; model group 10.31 ± 0.23. How it is done:
as §1

Data set [5] has as its system H2O2-induced HepG2 cells. The data set is described as follows: IL-8 content in H2O2-induced HepG2 cells (ELISA kit). The format is cell-based. As to conditions: peptide pretreatment 24 h, then 1.4 mM H2O2 2 h; supernatant; p < 0.05; model group 154.02 ± 2.80 pg/mL. How it is done: as §1
Data set [6] can be described thus: DPPH radical scavenging activity. The data set is classed as biochemical. As to conditions: 100 μL sample + 100 μL 0.1 mmol/L DPPH in anhydrous ethanol, 30 min dark, room temperature, absorbance 517 nm; sample concentration not given; mean ± SD, at least three repeats. The protocol:
Slightly modified according to the previous method, the 100 μL sample solution was mixed with 100 μL 0.1 mmol/L DPPH anhydrous ethanol solution and reacted in the dark at room temperature for 30 min. Then the absorbance was measured at 517 nm. The DPPH free radical scavenging rate of the sample was calculated by the formula below.(1) DPPH radical scavenging rate(%)=(1−A1−A2/A0)×100, where A1 represented the absorbance value the sample reaction with DPPH anhydrous ethanol solution; A2 represented the absorbance value of the sample’s reaction with anhydrous ethanol solution; A0 represented the absorbance of the reaction mixture solution without the sample.

Data set [7] in a line: ABTS radical scavenging activity. As to conditions: 40 μL sample + 160 μL ABTS working solution, 10 min dark, room temperature, absorbance 734 nm; sample concentration not given; mean ± SD, at least three repeats. The data set is classed as biochemical. The protocol:
Slightly modified according to the previous method, 7.4 mmol/L ABTS solution was mixed with the 2.6 mmol/L K2S2O8 solution in equal volume, and then was kept in the dark for 16 h. The ABTS working solution was obtained when the mixture was subsequently diluted with anhydrous ethanol to adjust the absorbance to a range of 0.70 ± 0.02 at 734 nm. Then, the sample solution of 40 μL was mixed with 160 μL ABTS working solution and reacted at room temperature for 10 min in the dark on 96 microporous plates. Meanwhile, the sample was replaced with distilled water as the blank. The absorbance was measured at 734 nm, and the ABTS radical scavenging rate of samples was calculated using the formula below.(2) ABTS radical scavenging rate(%)=[…], where A0 and A1 represented the absorbance values of the blank and sample groups.

Data set [8] is described as follows: Hydroxyl radical scavenging activity. The data set is classed as biochemical. As to conditions: salicylic acid / FeSO4 / H2O2 6.0 mmol/L, 37 °C, 0.5 h, absorbance 510 nm; sample concentration not given; mean ± SD, at least three repeats. The protocol:
The hydroxyl radical scavenging activities of samples were performed as in the previous method with slight modifications. Briefly, 6.0 mmol/L salicylic acid solution and FeSO4 solution were prepared, and 0.5 mL of each solution was added into a reaction tube, followed by the addition of a 0.5 mL sample solution and a 0.5 mL H2O2 solution of 6.0 mmol/L. After mixing, the reaction was conducted in a 37 °C water bath for 0.5 h, and then the absorbance was measured at 510 nm. Meanwhile, the sample was replaced with distilled water and used as the blank group, and H2O2 was replaced with distilled water and used as the control group. The hydroxyl radical scavenging rate of the sample was calculated according to the formula below.(3) hydroxyl radical scavenging rate(%)=(1-A0−A1/A)×100, where A0, A1, and A represented the absorbance values of the sample group, blank group, and control group, respectively.

Like-named read-outs stand apart in the source and are kept apart here.

`OO` [H2O2, hydrogen peroxide]: the cell viability in data set [1] (H2O2 0.8 µM) is reported as 91.77 ± 4.53%; in data set [1] (H2O2 1.6 mM), 37.01 ± 3.20%. The molecule also registered a cell survival rate in data set [1] (H2O2 1.4 mM) of 51.29 ± 3.06%.

Consider “GHNGLDGL [Gly-His-Asn-Gly-Leu-Asp-Gly-Leu, antioxidant peptide identified from yak skin hydrolysate YSP-I, synthesized]”, for which the “activity of SOD compared with the model group” value in data set [2] is “significantly more improved”. Further, the “activity of CAT compared with the model group” value in data set [3] was “significantly more improved”. Moreover, in data set [4], the MDA content stood at 4.65 ± 0.39 nmol/mg prot. In addition, the “intracellular IL-8 content compared with the model group” value in data set [5] is on record as “significantly reduced”.

In the case of “LMGPR [Leu-Met-Gly-Pro-Arg, antioxidant peptide identified from yak skin hydrolysate YSP-I, synthesized]”, the “activity of SOD compared with the model group” value in data set [2] is “significantly more improved”. Besides, the “activity of CAT compared with the model group” value in data set [3] is “significantly more improved”. In data set [4], the MDA content is given as 5.91 ± 0.27 nmol/mg prot. In addition, in data set [5], the “intracellular IL-8 content compared with the model group” value is on record as “significantly reduced”. For the same molecule, the “DPPH radical scavenging rate” value in data set [6] is on record as 23.56% ± 2.68%.

For the molecule “GPAGPQGPR [Gly-Pro-Ala-Gly Pro-Gln-Gly-Pro-Arg, antioxidant peptide identified from yak skin hydrolysate YSP-I, synthesized]”, the “activity of SOD compared with the model group” value in data set [2] was “significantly more improved”. Besides, in data set [3], the “activity of CAT compared with the model group” value is given as “significantly more improved”. Also, the MDA content in data set [4] is 5.96 ± 0.30 nmol/mg prot. Besides, the “intracellular IL-8 content compared with the model group” value in data set [5] was “significantly reduced”.

Regarding “FGFDGDF [Phe-Gly-Phe-Asp-Gly-Asp-Phe, antioxidant peptide identified from yak skin hydrolysate YSP-I, synthesized]”, the “activity of SOD in cells” value in data set [2] (peptide pretreatment 24 h, then 1.4 mM H2O2 2 h, cell lysate, mean ± SD, model group 6.17 ± 0.41, control 14.35 ± 0.06) was found to be 11.83 ± 0.16 U/mg prot. In addition, in data set [2], the “activity of SOD compared with the model group” value is on record as “significantly more improved”. In data set [3] (peptide pretreatment 24 h, then 1.4 mM H2O2 2 h, cell lysate, mean ± SD, model group 26.01 ± 1.78, control 60.80 ± 1.10), the “activity of CAT in cells” value turned out to be 47.49 ± 1.14 U/mg prot. Further, the “activity of CAT compared with the model group” value in data set [3] is “significantly more improved”. Besides, in data set [7], the “ABTS radical scavenging rate” value is recorded as 19.15% ± 1.59%. In addition, the MDA content in data set [4] is 3.945 ± 0.21 nmol/mg prot. Besides, in data set [5], the “intracellular IL-8 content compared with the model group” value is reported as “significantly reduced”. Moreover, the “hydroxyl radical scavenging rate” value in data set [8] is reported as 44.44% ± 1.94%. In data set [6], the “DPPH radical scavenging rate” value is listed as 25.80% ± 1.82%.

Take “GFDGD [Gly-Phe-Asp-Gly-Asp, antioxidant peptide identified from yak skin hydrolysate YSP-I, synthesized]”: in data set [2], the “activity of SOD compared with the model group” value was “significantly more improved”. The “activity of CAT compared with the model group” value in data set [3] is on record as “significantly more improved”. Moreover, the MDA content in data set [4] is reported as 5.55 ± 0.16 nmol/mg prot. For the same molecule, in data set [5], the “intracellular IL-8 content compared with the model group” value is “significantly reduced”. In addition, the “hydroxyl radical scavenging rate” value in data set [8] is 41.61% ± 1.73%.
